The values that follow come from US20110098177A1, “METHODS AND COMPOSITIONS OF PLANT MICRONUTRIENTS” (NOVUS INTERNATIONAL INC., priority 2006, published 2011).

Holding throughout (assay type): in vivo
One data set deals with Aristotle bell pepper. On the procedure: (§1) The following experiments were performed in a green house during the fall of 2007 at GCREC, Balm, University of Florida. Fifteen products, at 3 different application rates were examined. The plot size was 2-gallon pots. Crop set-up, procedures and variables were as follows.
(§2) Transplants of ‘Florida-47’ tomato and ‘Aristotle’ bell pepper plants in the 4-true leaf stage (about 6 inches tall) were planted in 2-gal pots on Aug. 27, 2007. Pots were filled with a commercially available planting medium. This medium was selected based on the mineral composition of the products to be applied without providing significant nutritional inputs to the crops. Irrigation was provided with drip lines delivering between 0.50 and 0.33 gal/day/pot for tomato and bell pepper, respectively, and the crops were irrigated three times per day. No foliar pesticides were necessary.
(§3) There were four control treatments corresponding to each target micronutrient in which non-Fe, non-Mn, non-Zn or non-Cu pots received all other essential nutrients under non-limiting conditions.
(§4) Treatments were applied at three rates (high, medium and low) obtained from the estimated concentration of Zn, Fe, Cu, and Mn foliarly-applied in tomato and bell pepper in field situations (Table 1). Products were weighed and dissolved in 200 ml of deionized water with a non-ionic surfactant and applied to the newly-matured open leaves of each crop at 3 and 7 weeks after transplant (WAT). Treated pots were isolated during application to avoid cross-contamination of other treatments.
(§5) Medium nutrient concentration was determined 1 week before treatment. The mineral composition of the medium was 26.8 ppm NH4—N, 49 ppm NO3—N, 15.8 ppm P, 91.2 ppm K, 82.3 ppm Ca, 58.2 ppm Mg, 23.9 ppm Na, 125.6 ppm S, 1.33 ppm Fe, 0.39 ppm Mn, 0.35 ppm Zn, 0.05 pp, Cu, 0.04 ppm B, 0 ppm Mo, 0.73 ppm Al, and 12.1 ppm Si. The pH of the medium was 5.36 and the electric conductivity was 1.38 mS/cm. The foliar tissue analysis was performed at 6 WAT and the concentration of N, P, K, Mg, Ca, S, B, Zn, Mn, Fe, and Cu was determined by a commercial laboratory. Plant toxicity was determined at 4 WAT by using a 0-10 visual scale, where 0=no visible damage and 10=total plant death. Marketable fruit weight was collected 2 times in bell pepper and 4 times in tomato following USDA standards.
(§6) Data were analyzed using a general linear model, and means were separated using orthogonal contrasts at the 5% significance level.

For another data set, the system named is Florida-47 tomato. On the procedure: as §1, §2, §3, §4, §5, §6
Data set [1] concerns Tygress tomato plants. In words: Foliar nutrient concentration at 6 WAT, open-field tomato (Examples 7-10). Particulars: in vivo. On the procedure: The following experiments were performed in open-field plots during the spring of 2008 at GCREC, Balm, University of Florida. Four products delivering Zn (BIOX-Z), Mn (BIOX-M), Cu (BIOX-Cu), and Fe (BIOX-Fe) were compared to other micronutrient supplement formulations in tomato and bell pepper plants.
The plot sizes for the tomato plants were 30-ft plots (15 plants per plot) and 15-ft plots were used for the bell pepper plants (30 plants per plot). Crop set-up, procedures and variables were as follows.
Transplants of ‘Tygress’ tomato plants and ‘Patriot’ bell pepper plants in the 4-true leaf stage (about 6 inches tall) were planted in raised beds in open-field plots. The cross-section of each raised bed was 28 inches wide at the top, 32 inches wide at the base, and 8 inches tall. Irrigation and non-micronutrient fertilizer were provided daily through two drip lines per bed (0.45 gal/100 ft bed/min) at recommended rates for tomato and bell pepper production in Florida. […] The height of the plants for each of the treatment groups was measured at 3 weeks after transplantation (WAT), just prior to treatment with the experimental foliar fertilizers.
All foliar fertilizers except BIOX-CM were applied to the various treatment groups at 3 weeks after transplantation (WAT) and again at 5 WAT. The BIOX-CM treatment was applied at 4 and 5 WAT. The working water volume was 60 gal/acre and a non-ionic surfactant (Ad-Spray 80) was added in the amount of 2 pints/100 gal water. All plots were sprayed with sprayers pressurized at 25 psi and the canopies of both crops were covered with the micronutrient solutions. Treated plots were isolated during foliar fertilizer application to avoid the cross-contamination of other treatments on adjoining plots.
Leaf samples were collected from the most recent mature leaves from each plant at 6 WAT (2 weeks after initial treatment). Foliar tissue analysis was performed by a commercial laboratory to determine the concentration of N, P, K, Mg, Ca, B, Zn, Mn, Fe, and Cu. Tomato marketable fruit weights were collected at 10 and 12 WAT, and the fruits were graded according to USDA standards. Pepper marketable fruit weights were determined beginning at 5 WAT over 5 weekly harvests. Fruit mineral analysis (N, P, K, Mg, Ca, B, Zn, Mn, Fe, and Cu) was performed on samples from the tomato harvest.
The experimental design was a randomized complete block design with 5 replications for each treatment. All comparison data were analyzed using a general linear model and the means of each treatment were separated with a Fisher's protected LSD test at the 5% significance level.

Data set [2] relates to Tygress tomato plants. In words: Foliar nutrient concentration at 7 WAT, greenhouse tomato spring 2009 (Examples 13-15). On the procedure:
(§7) The following experiments were performed in a green house during the spring of 2009 at GCREC, Balm, University of Florida. Crop set-up, procedures and variables were as follows.
(§8) Transplants of ‘Tygress’ tomato plants were planted in 2-gallon pots filled with commercial planting medium with nutrient concentration of Fe, Zn, Mn, Cu being negligible and insufficient for crop growth. Irrigation and non-micronutrient fertilizer were provided daily through microsprinklers at recommended rates for tomato production in Florida. No pesticides were used. Treatments were as described in Tables 42, 43, and 44 below. BIOX-Cu was compared to Cu-sulfate, BIOX-EDC, and BIOX-O; and BIOX-Fe was compared to Fe-sulfate and BIOX-EDF. BIOX-MEZ is Ca-HMTBA.
(§9) Treatments were applied at 6 WAT (weeks after transplanting) using a water volume of 200 mL/plant. Deionized water was used for foliar applications. A non-ionic surfactant was added. Other nutrients were applied as appropriate under non-limiting conditions.
Foliar tissue nutrient analysis was performed at 3 WAT (i.e., 3 weeks before treatment) and 7 WAT (i.e., 1 weeks after treatment) on the non-applied newest leaves. The concentrations of N, P, K, Mg, Ca, B, Zn, Mn, Fe, and Cu in the foliar tissue were determined by a commercial laboratory. There were no significant differences between the foliar nutrient concentrations of any of the treatment groups prior to treatment.
(§10) Experimental design was a randomized complete block design with 6 replications. Data were analyzed using a general linear model, and means were separated using an LSD test at the 5% significance level.

Data set [3] deals with Tygress tomato plants. Description: Yields of tomato fruits, greenhouse spring 2009 (Examples 13-15). On the procedure:
as §7, §8, §9
Marketable fruit were collected three times during the growing season, starting at 10 WAT (4 weeks after the initial treatment). Tomato fruit was graded as marketable and non-marketable. Marketable fruit was sized as extra-large, large, and medium. Non-marketable fruit were harvested and number and weight recorded but not sized.
as §10

Data set [4] deals with Tygress tomato plants. Conditions: for Toxicity (0-10): 0=no injury, 10=plant death. On the procedure: as §7, §8, §9
Toxicity of the treatments was assessed by rating foliar tissue using a visual scale, where 0=no injury and 10=plant death.
as §10

The mark [5] stands for this setting: High rate, 1 week after treatment, scale 0 = no visible injury, 10 = plant death.
[6] abbreviates: Low rate, 1 week after treatment, scale 0 = no visible injury, 10 = plant death.
Setting [7] is: Medium rate, 1 week after treatment, scale 0 = no visible injury, 10 = plant death.
The mark [8] stands for this setting: tomato and bell pepper plants stated together, Fall 2007 greenhouse.
Setting [9] is: BIOX-Cu at 0.46 and 0.55 lb/acre, Cu-sulfate at 0.8 lb/acre, BIOX-EDC at 0.4 lb/acre.

Read-outs that look alike come from different tables or passages of the source.

Consider `NCC(=O)[O-].NCC(=O)[O-].[Cu+2]` [BIOX-GC, copper glycinate], for which, in the data set with Aristotle bell pepper (in vivo), the Pepper toxicity was 7. In the data set with Florida-47 tomato (in vivo), the “Foliar injury (in words)” value was “from light leaf speckling to severe necrosis and plant decay”; the Tomato toxicity came to 7; the Toxicity scale score stood at 7. In addition, in the data set with Tygress tomato plants [1], the “Foliar Zn concentration of tomato plants, statement” value is given as “slightly higher foliar Zn concentration”.
The compound `O=S(=O)([O-])[O-].[Fe+2]` [BIOX-INI, ferrous sulfate] came in with a Pepper toxicity in the data set with Aristotle bell pepper (in vivo) of 7. In the data set with Florida-47 tomato (in vivo), the “Foliar injury (in words)” value is “from light leaf speckling to severe necrosis and plant decay”; the Tomato toxicity amounted to 7; the Toxicity scale scores was 7-9. Moreover, in the data set with Tygress tomato plants [2] (7 WAT (1 week after treatment)), the “Foliar Fe concentration in tomato leaves, statement” value was “highest Fe concentrations”. For the same compound, in the data set on Tygress tomato plants [3] (BIOX-Fe at all levels, Fe-sulfate at 2.0 lb/acre, BIOX-EDF at 0.3 lb/acre), the “Marketable tomato yields compared to non-treated control, statement” value is reported as “decreased marketable yields relative to the non-treated control”. The “Toxicity relative to the non-treated control, statement” value in the data set with Tygress tomato plants [4] (all levels of BIOX-Fe, Fe-sulfate at 2.0 lb/acre, BIOX-EDF at 0.3 lb/acre) was “increased toxicity”.
Take `O=S(=O)([O-])[O-].[Cu+2]` [Cu sulfate]: the “Foliar Cu concentration” value in the data set on Tygress tomato plants [2] (Cu 0.8 lb/acre, tomato leaves 1 week after treatment) stood at 986 ppm. In the data set on Tygress tomato plants [3] (Cu 0.8 lb/acre), this compound had a Marketable yield of 1200 b g/plant. For the same compound, the “Toxicity (0-10)” value in the data set on Tygress tomato plants [4] (Cu 0.8 lb/acre) turned out to be 6.
Take `O=S(=O)([O-])[O-].[Fe+2]` [Fe sulfate]: the “Foliar Fe concentration” value with Tygress tomato plants [2] (Fe 2.0 lb/acre, tomato leaves 1 week after treatment) stood at 888 ppm. The Marketable yield in the data set with Tygress tomato plants [3] (Fe 2.0 lb/acre) is 1100 g/plant. The “Toxicity (0-10)” value in the data set with Tygress tomato plants [4] (Fe 2.0 lb/acre) amounted to 5.
Consider EDTA chelated copper [BIOX-EDC], for which the Pepper toxicity with Aristotle bell pepper (setting [5]), with Aristotle bell pepper (setting [6]) and in the data set on Aristotle bell pepper (setting [7]) was 8 throughout. Also, the Tomato toxicity with Florida-47 tomato (setting [5]), in the data set on Florida-47 tomato (setting [6]) and in the data set with Florida-47 tomato (setting [7]) was 8 each time. For the same compound, in the data set with Florida-47 tomato (comparable ranges of copper concentrations (0.004% to 0.061% by weight), scale 0-10, both crops), the Toxicity scale score stood at 8. Besides, in the data set on Florida-47 tomato (setting [8]), the “Foliar injury (in words)” value was “from light leaf speckling to severe necrosis and plant decay”. In addition, the “Copper concentrations in tomato leaves, statement” value with Tygress tomato plants [2] (7 WAT (1 week after treatment)) is listed as “highest leaf copper concentrations”. Further, the “Foliar Cu concentration” value in the data set with Tygress tomato plants [2] (Cu 0.4 lb/acre, tomato leaves 1 week after treatment) amounted to 678 ppm. In addition, in the data set with Tygress tomato plants [3] (setting [9]), the “Marketable tomato yields compared to non-treated control, statement” value was “did not alter marketable yields relative to the non-treated control”. Besides, in the data set with Tygress tomato plants [3] (Cu 0.4 lb/acre), the Marketable yield worked out at 1550 b g/plant. Also, the “Toxicity compared to non-treated control plants, statement” value in the data set with Tygress tomato plants [4] (setting [9]) is recorded as “increased levels of toxicity”. For the same compound, the “Toxicity (0-10)” value in the data set on Tygress tomato plants [4] (Cu 0.4 lb/acre) came to 6.
For the compound EDTA chelated iron [BIOX-EDI], the Pepper toxicity in the data set on Aristotle bell pepper (setting [5]), in the data set with Aristotle bell pepper (setting [6]) and with Aristotle bell pepper (setting [7]) was 9 throughout. For the same compound, the Tomato toxicity in the data set on Florida-47 tomato (setting [5]), in the data set on Florida-47 tomato (setting [6]) and in the data set on Florida-47 tomato (setting [7]) was 8 each time. For the same compound, the “Foliar injury (in words)” value in the data set with Florida-47 tomato (setting [8]) is “from light leaf speckling to severe necrosis and plant decay”.
For manganese glycinate [BIOX-GM], the Pepper toxicity in the data set with Aristotle bell pepper (setting [5]), in the data set on Aristotle bell pepper (setting [6]) and in the data set with Aristotle bell pepper (setting [7]) was 7 throughout. Further, the Tomato toxicity in the data set with Florida-47 tomato (setting [5]), with Florida-47 tomato (setting [6]) and in the data set with Florida-47 tomato (setting [7]) was 7 throughout. For the same compound, in the data set on Florida-47 tomato (similar manganese concentrations (0.015% to 0.124% by weight), scale 0-10, both crops), the Toxicity scale score was determined as 7. The “Foliar injury (in words)” value in the data set with Florida-47 tomato (setting [8]) is “from light leaf speckling to severe necrosis and plant decay”.
